Our source for the EC50 values is patent US12679807B2 (MERCK SHARP & DOHME LLC, priority 2020, dated 2026).

The target of this experiment is T1, GCS enzyme contained within Golgi preparations isolated from human A375 malignant melanoma skin cells (Homo sapiens, UniProt Q16739).
T1 construct: endogenous levels of GCS enzyme contained within Golgi preparations isolated from human A375 malignant melanoma skin cells; endogenous in cells; host or cells: A375 human malignant melanoma cells (crude Golgi preparation)
T1 sequence (Q16739 1-394): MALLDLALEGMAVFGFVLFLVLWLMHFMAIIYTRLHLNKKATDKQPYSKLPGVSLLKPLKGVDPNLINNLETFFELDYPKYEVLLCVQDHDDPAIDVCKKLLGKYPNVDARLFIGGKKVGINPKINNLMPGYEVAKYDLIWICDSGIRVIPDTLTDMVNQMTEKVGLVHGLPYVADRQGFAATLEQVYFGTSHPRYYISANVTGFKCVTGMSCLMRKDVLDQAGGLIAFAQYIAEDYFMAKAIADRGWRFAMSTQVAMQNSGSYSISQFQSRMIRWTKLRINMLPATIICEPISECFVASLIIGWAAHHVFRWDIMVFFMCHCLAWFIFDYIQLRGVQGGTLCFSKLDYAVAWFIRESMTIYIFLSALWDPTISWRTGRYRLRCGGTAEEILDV
In words: UDP-Glo glucosylceramide synthase biochemical assay. The note with it: crude Golgi preparation from A375 cells; C6 ceramide and UDP-glucose substrates; 20 h incubation at room temperature; UDP detected by luminescence. An excerpt:
UDP-Glo™ Glucosylceramide Synthase Biochemical Assay
A UDP-Glo™ glucosylceramide synthase biochemical assay was utilized to evaluate the effect of test compounds on the activity of endogenous levels of GCS enzyme contained within Golgi preparations isolated from human A375 malignant melanoma skin cells. The UDP-Glo™ glucosylceramide synthase assay uses UDP-Glucose as a nucleotide-glycosyl donor and ceramide as substrate acceptor molecules. In the reaction, glucosylceramide synthase (GCS) transfers glucose from UDP-Glucose to ceramide. Glucosylceramide and UDP are released as products.
Using Promega's UDP-Glo™ Glycosyltransferase assay kit (Promega Corporation, Madison, WI, USA (Promega)), GCS activity was indirectly measured by detecting the amount of UDP produced. An aliquot of GCS enzyme (1.5 μg crude golgi preparation, total protein) and titrated test compound were aliquoted to each well and incubated for 30 minutes at room temperature. […] An equivalent volume of substrate mixture was then added to each well. Following a 20 h incubation at room temperature to allow for GCS turnover of substrate, an equal volume of UDP detection reagent (Promega) was added to each well and incubated for an additional 75 minutes at room temperature to simultaneously convert the accumulated UDP product into ATP and generate light in a luciferase reaction. The generated light was detected using a luminometer. […] luminescence values (RLUs) were normalized to mean “min” and “max” effects, as determined on each plate. […] Values for % Emax and EC50 were determined by best-fitting the normalized data to a curve in Activity Base along a four-parameter logistic nonlinear regression (4PL) model (based on the Levenberg-Marquardt algorithm and defined by the equation below):
[formula] where: n is 4 PMin (bottom of the curve); m is 4 PMax (top of the curve); i is IP (inflection point of curve); and p is slope. See Levenberg, K., “A Method for the Solution of Certain Problems in Least Squares”, Quart. Appl. Math. […] Math.

`COc1ccc(F)c(F)c1C(=O)Nc1cccc2c1C(=O)N(C(C1CC1)C(C)(C)O)C2` (single isomer, unassigned) [Compound 112, (R or S)-N-(2-(1-cyclopropyl-2-hydroxy-2-methylpropyl)-3-oxoisoindolin-4-yl)-2,3-difluoro-6-methoxybenzamide] yielded an EC50 of 0.41 nM. Compound `Cc1cccc(C(=O)Nc2cccc3c2C(=O)N(C(C2CC2)C(C)(C)O)C3)c1Cl` (single isomer, unassigned) [Compound 113, (R or S)-2-chloro-N-(2-(1-cyclopropyl-2-hydroxy-2-methylpropyl)-3-oxoisoindolin-4-yl)-3-methylbenzamide] displayed an EC50 of 1.2 nM. `CC(C)(O)C(C1CC1)N1Cc2cccc(NC(=O)c3cccc4c3CCC4)c2C1=O` (single isomer, unassigned) [Compound 114, (R or S)-N-(2-(1-cyclopropyl-2-hydroxy-2-methylpropyl)-3-oxoisoindolin-4-yl)-2,3-dihydro-1H-indene-4-carboxamide] showed an EC50 of 1.3 nM. Turning to `CC(C)(O)C(C1CC1)N1Cc2cccc(NC(=O)c3c(F)ccc(F)c3Cl)c2C1=O` (single isomer, unassigned) [Compound 115, (R or S)-2-chloro-N-(2-(1-cyclopropyl-2-hydroxy-2-methylpropyl)-3-oxoisoindolin-4-yl)-3,6-difluorobenzamide], it took 1.5 nM to reach a half-maximal effect (EC50). Compound `CC(C)(O)C(C1CC1)N1Cc2cccc(NC(=O)c3cccc(F)c3C(F)(F)F)c2C1=O` (single isomer, unassigned) [Compound 116, (R or S)-N-(2-(1-cyclopropyl-2-hydroxy-2-methylpropyl)-3-oxoisoindolin-4-yl)-3-fluoro-2-(trifluoromethyl)benzamide] returned an EC50 of 3.1 nM. In turn, `Cc1c(F)cccc1C(=O)Nc1cccc2c1C(=O)N(C(C1CC1)C(C)(C)O)C2` (single isomer, unassigned) [Compound 119, (R or S)-N-(2-(1-cyclopropyl-2-hydroxy-2-methylpropyl)-3-oxoisoindolin-4-yl)-3-fluoro-2-methylbenzamide] gave an EC50 of 7.2 nM.

The compound `Cc1c(C(=O)Nc2cccc3c2C(=O)N(C(C2CC2)C(C)(C)O)C3)cccc1C(F)(F)F` (single isomer, unassigned) [Compound 120, (R or S)-N-(2-(1-cyclopropyl-2-hydroxy-2-methylpropyl)-3-oxoisoindolin-4-yl)-2-methyl-3-(trifluoromethyl)benzamide] displayed an EC50 of 10 nM. In turn, `CC(C)(O)C(C1CC1)N1Cc2cccc(NC(=O)c3cccc4ncsc34)c2C1=O` (single isomer, unassigned) [Compound 131, (R or S)-N-(2-(1-cyclopropyl-2-hydroxy-2-methylpropyl)-3-oxoisoindolin-4-yl)benzo[d]thiazole-7-carboxamide] had an EC50 of 45 nM. The compound `COCC(C1CC1)N1Cc2cccc(NC(=O)c3ccnc4c3CCC4)c2C1=O` (single isomer, unassigned) [Compound 136, (R or S)-N-(2-(1-cyclopropyl-2-methoxyethyl)-3-oxoisoindolin-4-yl)-6,7-dihydro-5H-cyclopenta[b]pyridine-4-carboxamide] registered an EC50 of 80 nM. The figure for `CC(C)(O)C(C1CC1)N1Cc2cncc(NC(=O)c3ccnc4c3CCC4)c2C1=O` (single isomer, unassigned) [Compound 151, (R or S)—N-(2-(1-Cyclopropyl-2-hydroxy-2-methylpropyl)-1-oxo-2,3-dihydro-1H-pyrrolo[3,4-c]pyridin-7-yl)-6,7-dihydro-5H-cyclopenta[b]pyridine-4-carboxamide] is 61 nM. As for `CC(C)(O)C(C1CC1)N1Cc2nccc(NC(=O)c3ccnc4c3CCC4)c2C1=O` (single isomer, unassigned) [Compound 152, (R or S)-N-(6-(1-cyclopropyl-2-hydroxy-2-methylpropyl)-5-oxo-6,7-dihydro-5H-pyrrolo [3,4-b]pyridin-4-yl)-6,7-dihydro-5H-cyclopenta[b]pyridine-4-carboxamide], the figure is 96 nM; as for `COc1ncc(C)c(C(=O)Nc2cccc3c2C(=O)N(C(C2CC2)C(C)(C)O)C3)c1C` (single isomer, unassigned) [Compound 153, (R or S)-N-(2-(1-cyclopropyl-2-hydroxy-2-methylpropyl)-3-oxoisoindolin-4-yl)-2-methoxy-3,5-dimethylisonicotinamide], 29 nM; as for `COc1ncc(Cl)c(C(=O)Nc2cccc3c2C(=O)N(C(C2CC2)C(C)(C)O)C3)c1C` (single isomer, unassigned) [Compound 154, (R or S)-5-Chloro-N-(2-(1-cyclopropyl-2-hydroxy-2-methylpropyl)-3-oxoisoindolin-4-yl)-2-methoxy-3-methylisonicotinamide], 0.1 nM. The figure for `CC(C)(O)C(C1CC1)N1Cc2cccc(NC(=O)c3c(Cl)cnc4c3CCO4)c2C1=O` (single isomer, unassigned) [Compound 155, (R or S)-5-Chloro-N-(2-(1-cyclopropyl-2-hydroxy-2-methylpropyl)-3-oxoisoindolin-4-yl)-2,3-dihydrofuro[2,3-b]pyridine-4-carboxamide] is 0.19 nM.

Compound `CC(C)(O)C(C1CC1)N1Cc2cccc(NC(=O)c3c(Cl)cnc4c3OCO4)c2C1=O` (single isomer, unassigned) [Compound 157, (R or S)-6-chloro-N-(2-(1-cyclopropyl-2-hydroxy-2-methylpropyl)-3-oxoisoindolin-4-yl)-[1,3]dioxolo[4,5-b]pyridine-7-carboxamide] yielded an EC50 of 0.49 nM. As for `CC(C)(O)C(C1CC1)N1Cc2cccc(NC(=O)c3ccnc4c3CCC4)c2C1=O` (single isomer, unassigned) [Compound 158, (R or S)-N-(2-(1-cyclopropyl-2-hydroxy-2-methylpropyl)-3-oxoisoindolin-4-yl)-6,7-dihydro-5H-cyclopenta[b]pyridine-4-carboxamide], the figure is 1 nM; as for `Cn1cc2c(C(=O)Nc3cccc4c3C(=O)N(C(C3CC3)C(C)(C)O)C4)cccc2n1` (single isomer, unassigned) [Compound 160, (R or S)-N-(2-(1-cyclopropyl-2-hydroxy-2-methylpropyl)-3-oxoisoindolin-4-yl)-2-methyl-2H-indazole-4-carboxamide], 5.9 nM; as for `CC(C)(O)C(C1CC1)N1Cc2cccc(NC(=O)c3ccnc4c3CCO4)c2C1=O` (single isomer, unassigned) [Compound 162, (R or S)-N-(2-(1-cyclopropyl-2-hydroxy-2-methylpropyl)-3-oxoisoindolin-4-yl)-2,3-dihydrofuro[2,3-b]pyridine-4-carboxamide], 23 nM. The figure for `CC(C)(O)C(C1CC1)N1Cc2cccc(NC(=O)c3ccnc4c3OCCO4)c2C1=O` (single isomer, unassigned) [Compound 163, (R or S)-N-(2-(1-cyclopropyl-2-hydroxy-2-methylpropyl)-3-oxoisoindolin-4-yl)-2,3-dihydro-[1,4]dioxino[2,3-b]pyridine-8-carboxamide] is 61 nM. The figure for `COc1nccc(C(=O)Nc2cccc3c2C(=O)N(C(C2CC2)C(C)(C)O)C3)c1OC` (single isomer, unassigned) [Compound 164, (R or S)-N-(2-(1-cyclopropyl-2-hydroxy-2-methylpropyl)-3-oxoisoindolin-4-yl)-2,3-dimethoxyisonicotinamide] is 77 nM. The compound `COC(C)(C)C(C1CC1)N1Cc2cccc(NC(=O)c3ccnc4c3CCC4)c2C1=O` (single isomer, unassigned) [Compound 165, (R or S)-N-(2-(1-cyclopropyl-2-methoxy-2-methylpropyl)-3-oxoisoindolin-4-yl)-6,7-dihydro-5H-cyclopenta[b]pyridine-4-carboxamide] displayed an EC50 of 200 nM. The compound `Cc1cnc2c(c1C(=O)Nc1cccc3c1C(=O)N(C(C1CC1)C(C)(C)O)C3)CCO2` (single isomer, unassigned) [Compound 168, (R or S)—N-(2-(1-Cyclopropyl-2-hydroxy-2-methylpropyl)-3-oxoisoindolin-4-yl)-5-methyl-2,3-dihydrofuro[2,3-b]pyridine-4-carboxamide] had an EC50 of 0.3 nM.
